Laboratory results reported in the supplement of paper PMC4862054.

Experiments:
Conditions in all cases: incubation time: 72 h
CAL-120 [1] = assay: normalised response (% of control), CellTox Green; higher = less cell death (100 = DMSO, 0 = benzethonium chloride kill control)
How it was run: (§1)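 Breast cancer cell lines were exposed for 72 h in 384-well plates to compound at 5 concentrations, 10-fold apart, covering a 10,000-fold range fixed for each compound. Plates were read for CellTox Green fluorescence and CellTiter-Glo luminescence and normalised to 0.1 % DMSO (100) and a positive kill control (0). Each value is the normalised signal at one concentration of the series.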

MDA-MB-231 [2] = assay: as above
How it was run: as §1

MCF-10A [3] = assay: as above
How it was run: as §1

CAL-148 [4] = assay: as above
How it was run: as §1

MDA-MB-453 [5] = assay: as above
How it was run: as §1

HCC1143 [6] = assay: as above
How it was run: as §1

HCC1599 [7] = assay: as above
How it was run: as §1

DU-4475 [8] = assay: as above
How it was run: as §1

MDA-MB-436 [9] = assay: as above
How it was run: as §1

CAL-51 [10] = assay: as above
How it was run: as §1

CAL-85-1 [11] = assay: as above
How it was run: as §1

HDQ-P1 [12] = assay: as above
How it was run: as §1

MDA-MB-468 [13] = assay: as above
How it was run: as §1

MFM-223 [14] = assay: as above
How it was run: as §1

BT-474 [15] = assay: as above
How it was run: as §1

Hs578T [16] = assay: as above
How it was run: as §1

HCC1937 [17] = assay: as above
How it was run: as §1

BT-549 [18] = assay: as above
How it was run: as §1

CAL-120 [19] = assay: normalised response (% of control), CellTiter-Glo; higher = more viable cells (100 = DMSO, 0 = benzethonium chloride kill control)
Procedure: (§2)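 DSRT, 72 h incubation, CellTox Green / CellTiter-Glo readout. Signal is normalised to DMSO and benzethonium chloride controls. Value is the normalised response at dose 3.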

MDA-MB-231 [20] = assay: as above
Procedure: as §2

MCF-10A [21] = assay: as above
Procedure: as §2

CAL-148 [22] = assay: as above
Procedure: as §2

MDA-MB-453 [23] = assay: as above
Procedure: as §2

HCC1143 [24] = assay: as above
Procedure: as §2

HCC1599 [25] = assay: as above
Procedure: as §2

DU-4475 [26] = assay: as above
Procedure: as §2

MDA-MB-436 [27] = assay: as above
Procedure: as §2

CAL-51 [28] = assay: as above
Procedure: as §2

CAL-85-1 [29] = assay: as above
Procedure: as §2

HDQ-P1 [30] = assay: as above
Procedure: as §2

MDA-MB-468 [31] = assay: as above
Procedure: as §2

MFM-223 [32] = assay: as above
Procedure: as §2

BT-474 [33] = assay: as above
Procedure: as §2

Hs578T [34] = assay: as above
Procedure: as §2

HCC1937 [35] = assay: as above
Procedure: as §2

SK-BR-3 = assay: as above
Procedure: as §2

BT-549 [36] = assay: as above
Procedure: as §2

Structure (SMILES) | normalised response (CAL-120 [1]) | normalised response (MDA-MB-231 [2]) | normalised response (MCF-10A [3]) | normalised response (CAL-148 [4]) | normalised response (MDA-MB-453 [5]) | normalised response (HCC1143 [6]) | normalised response (HCC1599 [7]) | normalised response (DU-4475 [8]) | normalised response (MDA-MB-436 [9]) | normalised response (CAL-51 [10]) | normalised response (CAL-85-1 [11]) | normalised response (HDQ-P1 [12]) | normalised response (MDA-MB-468 [13]) | normalised response (MFM-223 [14]) | normalised response (BT-474 [15]) | normalised response (Hs578T [16]) | normalised response (HCC1937 [17]) | normalised response (BT-549 [18]) | normalised response (CAL-120 [19]) | normalised response (MDA-MB-231 [20]) | normalised response (MCF-10A [21]) | normalised response (CAL-148 [22]) | normalised response (MDA-MB-453 [23]) | normalised response (HCC1143 [24]) | normalised response (HCC1599 [25]) | normalised response (DU-4475 [26]) | normalised response (MDA-MB-436 [27]) | normalised response (CAL-51 [28]) | normalised response (CAL-85-1 [29]) | normalised response (HDQ-P1 [30]) | normalised response (MDA-MB-468 [31]) | normalised response (MFM-223 [32]) | normalised response (BT-474 [33]) | normalised response (Hs578T [34]) | normalised response (HCC1937 [35]) | normalised response (SK-BR-3) | normalised response (BT-549 [36])
C/C(=C\c1csc(C)n1)[C@@H]1C[C@@H]2O[C@]2(C)CCC[C@H](C)[C@H](O)[C@@H](C)C(=O)C(C)(C)[C@@H](O)CC(=O)N1 [Ixabepilone] (10 nM) | 102% | 102% | 84.4% | 94.7% | 93.6% | 80.8% | 101% | 104% | 86.6% | 102% | 99% | 101% | 123% | 95.7% | 98.7% | 84% | 107% | 82.4% | 102% | 98.6% | 108% | 102% | 101% | 102% | 95.2% | 104% | 106% | 86% | 97.5% | 102% | 93.7% | 105% | 100% | 107% | 95.4% | 113% | 102%
Cn1cc(C2=C(c3cn(C4CCN(Cc5ccccn5)CC4)c4ccccc34)C(=O)NC2=O)c2ccccc21 [Enzastaurin] (100 nM) | 104% | 102% | 104% | 95% | 102% | – | 115% | 104% | 86% | 104% | 99.2% | 114% | 56.9% | 107% | 101% | 111% | 102% | 95.4% | 99.1% | 103% | 101% | 106% | 105% | 103% | 90.6% | 99.4% | 102% | 65% | 107% | 94% | 96.9% | 106% | 103% | 98.2% | 101% | 104% | 98.3%
CNC(=O)c1ccccc1Sc1ccc2c(/C=C/c3ccccn3)n[nH]c2c1 [Axitinib] (100 nM) | 99.2% | 105% | 98.7% | 108% | 110% | 105% | 113% | 104% | – | 107% | 104% | 116% | 132% | 96% | 102% | 111% | 102% | 113% | 104% | 111% | 100% | 112% | 110% | 102% | 101% | 111% | 102% | 81.6% | 109% | 102% | 93.8% | 90.5% | 104% | 98.5% | 97.8% | 103% | 107%
CN[C@@H](C)C(=O)N[C@H]1CN(C(=O)CC(C)C)CC[C@H]2CC[C@@H](C(=O)NC(c3ccccc3)c3ccccc3)N2C1=O [AT-406] (100 nM) | 83% | 35.2% | 101% | – | 102% | 70.4% | 101% | 104% | 76.2% | 96.3% | – | 86.4% | 114% | 104% | 94.9% | 97.2% | 95.2% | 68.8% | 92.5% | 63.9% | 111% | 102% | 89.8% | 103% | 79.1% | 102% | 105% | 109% | 86.6% | 95.9% | 103% | 102% | 54% | 100% | 103% | 99.9% | 47.4%
CC(=O)[C@]1(O)Cc2c(O)c3c(c(O)c2[C@@H](O[C@H]2C[C@H](N)[C@H](O)[C@H](C)O2)C1)C(=O)c1ccccc1C3=O [Idarubicin] (10 nM) | 97.7% | 106% | – | 93% | 104% | 114% | 113% | 100% | 96% | 79.8% | 97.7% | 105% | 118% | 97.6% | 99.2% | 114% | 55.8% | 83.3% | 106% | 109% | 100% | 102% | 110% | 109% | 118% | 96% | 95.9% | 73.7% | 105% | 101% | 92.9% | 107% | 98.7% | 94.5% | 99.2% | 105% | 89.7%
Cc1cc(Nc2nc(N[C@@H](C)c3ncc(F)cn3)ncc2Cl)[nH]n1 [AZD1480] (10 nM) | 95.6% | 95.6% | – | 66.3% | 98.8% | 106% | 99.4% | 96.6% | 73.2% | 111% | 108% | 97.8% | 136% | 96.4% | 98.2% | 109% | 92.2% | 65.3% | 98.4% | 96.1% | 92.3% | 93.5% | 88.9% | 103% | 107% | 93.9% | 106% | 114% | 103% | 97.1% | 104% | 96% | 99.9% | 92.2% | 98.9% | 97% | 102%
